What was measured:
[1] = system: NIH-3T3 fibroblasts; test: Neutral Red assay of NIH-3T3 fibroblast viability; assay type: cell-based; details: for impact on viability of NIH-3T3 cells: concentrations between 10^-12 and 10^-6 mol/L; for effect on NIH-3T3 cell viability: drug at concentrations between 10^-12 and 10^-4 mol/L, relative to control (no drug), 48 hours
Procedure: Cell survival and viability of NIH-3T3 fibroblasts were measured using a Neutral Red Assay. NIH-3T3 fibroblasts were seeded into 96-well cell culture plates at a density of 10^4 cells/well in Dulbecco's Modified Eagle's Medium supplemented with 10% fetal calf serum. After 48 hours, cells were stained using a Neutral Red Assay. Neutral red is taken up only by living cells.
After incubation for 3 hours and several washing steps, cells were permeabilized and the neutral red solubilized in the supernatant. The absorption measured at 570 nm is proportional to the number of living cells. Measurements were run in quintuplicate and results were averaged. The experiment was repeated at least four times.
(§1) Discs (0.1 mm thick and 6 mm in diameter) of poly(L-lactide) (PLLA, Resomer L214, Boehringer Ingelheim Pharma GmbH & Co. KG, Ingelheim, Germany), poly(4-hydroxybutyrate) (P(4HB), Tepha, Inc., Lexington, Mass., USA) and silicone were placed at the bottom of standard 96-well tissue culture plates. Microtiter plates without material additions served as controls. Cells were seeded into each of the different cell culture wells and the assays were carried out as described above in Examples 1 and 2. For absorption measurements when using NIH-3T3 cells and neutral red test, the supernatant of all wells was transferred into new wells after permeabilization of the cells. Surviving spiral ganglion cells were stained directly on the polymer discs and counted.
The NIH-3T3 fibroblasts were cultured and assayed with Neutral Red according to Example 1, except that dexamethasone or sirolimus were added to the cell culture at concentrations between 10^−12 and 10^−4 mol/L. The percentage of viable NIH-3T3 cells was assayed relative to the control (no drug) and the results are shown in FIGS. 2 (dexamethasone) and 3 (sirolimus).

[2] = system: spiral ganglion cells; test: Spiral ganglion cell survival by anti-neurofilament antibody staining and microscopic counting; assay type: cell-based, Sprague-Dawley rats; details: for viability (survival) of spiral ganglion cells at high concentration: concentration of 10^-5 mol/L (FIG. 3); for impact on viability of SGC: concentrations between 10^-12 and 10^-6 mol/L
Procedure: Spiral ganglion cells were freshly isolated from Sprague-Dawley rats (p3-5). Viable cells were suspended in Dulbecco's Modified Eagle's Medium supplemented with 10% fetal calf serum and 50 ng/ml BDNF and were seeded onto laminin- and ornithin-coated cell culture plates at a density of 1.5×10^4 cells/well. After a cultivation time of 48 hours, cells were stained with anti-neurofilament antibody and counted under a microscope. All experiments were performed in quadruplicate and the experiment was repeated four times.
as §1

SMILES | impact on viability of NIH-3T3 cells [1] | effect on NIH-3T3 cell viability [1] | viability (survival) of spiral ganglion cells at high concentration [2] | viability (survival) of spiral ganglion cells at high concentration ([2]; listed as Sirolimus) | impact on viability of SGC [2] | increase of spiral ganglion cell viability ([2]; concentrations between 10^-11 to 10^-7 mol/L (FIG. 2)) [%] | effect on spiral ganglion cell viability ([2]; drug at concentrations between 10^-12 and 10^-4 mol/L, relative to control (no drug), 48 hours)
CO[C@H]1C[C@@H]2CC[C@@H](C)[C@@](O)(O2)C(=O)C(=O)N2CCCC[C@H]2C(=O)O[C@H]([C@H](C)C[C@@H]2CC[C@@H](O)[C@H](OC)C2)CC(=O)[C@H](C)/C=C(\C)[C@@H](O)[C@@H](OC)C(=O)[C@H](C)C[C@H](C)/C=C/C=C/C=C/1C [sirolimus] | do not have an adverse impact | only a small decrease | reduced | substantially reduced | do not have an adverse impact | – | –
C[C@@H]1C[C@H]2[C@@H]3CCC4=CC(=O)C=C[C@]4(C)[C@@]3(F)[C@@H](O)C[C@]2(C)[C@@]1(O)C(=O)CO [dexamethasone] | do not have an adverse impact | no toxic effects | – | – | do not have an adverse impact | ~20 | no toxic effects
